According to patent US11248234B2, “Herbicide-resistant hydroxyphenylpyruvate dioxygenases” (BASF SE, priority 2015, dated 2022):
pKi: −log10 of the molar value. “Also recorded” adds a separate entry of the source.

How the values were obtained:
Assay in all cases: In vitro HPPD activity assay
[1] = target: Scenedesmus Short HPPD (Seq ID: 4) (Tetradesmus obliquus, UniProt A0A383WMN4, DEL398-433/N195D); format: biochemical; conditions: for TI (normalized tolerance index): normalized on Arabidopsis wild-type HPPD (SEQ ID NO:42)
Sequence of Scenedesmus Short HPPD (Seq ID: 4) (A0A383WMN4 entry or part of it N195D/DEL398-433): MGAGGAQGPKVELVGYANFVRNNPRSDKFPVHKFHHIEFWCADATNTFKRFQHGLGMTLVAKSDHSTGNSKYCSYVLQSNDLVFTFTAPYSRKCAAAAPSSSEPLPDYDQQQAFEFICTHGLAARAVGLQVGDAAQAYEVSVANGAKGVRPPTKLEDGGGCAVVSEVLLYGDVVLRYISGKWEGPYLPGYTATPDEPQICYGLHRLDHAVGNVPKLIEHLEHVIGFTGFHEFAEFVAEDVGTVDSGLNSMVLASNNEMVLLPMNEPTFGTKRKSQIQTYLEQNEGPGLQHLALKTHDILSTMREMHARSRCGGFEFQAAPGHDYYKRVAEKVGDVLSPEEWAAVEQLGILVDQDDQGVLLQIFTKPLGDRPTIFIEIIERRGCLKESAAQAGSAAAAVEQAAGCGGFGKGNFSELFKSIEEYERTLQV
Protocol: (§1) HPPD produces homogentisic acid and CO2 from 4-hydroxyphenylpyruvate (4-HPP) and O2. The activity assay for HPPD is based on the analysis of homogentisic acid by reversed phase HPLC.
(§2) The assay mixture can contain 150 mM potassium phosphate buffer pH 7.0, 50 mM L-ascorbic acid, 100 μM Catalase (Sigma-Aldrich), 1 μM FeSO4 and 0.2 units of purified mutated HPPD enzyme in a total volume of 505 μl. 1 unit is defined as the amount of enzyme that is required to produce 1 nmol of HGA per minute at 20° C.
(§3) After a preincubation of 30 min the reaction is started by adding 4-HPP to a final concentration of 0.05 mM. The reaction is allowed to proceed for 45 min at room temperature. The reaction is stopped by the addition of 50 μl of 4.5 M phosphoric acid. The sample is filtered using a […] pore size PVDF filtration device.
(§4) 5 μl of the cleared sample is analyzed on an UPLC HSS T3 column (particle size 1.8 μm, dimensions 2.1×50 mm; Waters) by isocratic elution using 90% 20 mM NaH2PO4 pH 2.2, 10% methanol (v/v).
(§5) HGA is detected electrochemically at 750 mV (mode: DC; polarity: positive) and quantified by integrating peak areas (Empower software; Waters).
(§6) Inhibitors are dissolved in DMSO (dimethylsulfoxide) to a concentration of 0.5 mM. From this stock solution serial five-fold dilutions are prepared in DMSO, which are used in the assay. The respective inhibitor solution accounts for 1% of the assay volume. Thus, final inhibitor concentrations range from 5 μM to 320 pM, respectively. Activities are normalized by setting the uninhibited enzyme activity to 100%. IC50 values are calculated using non-linear regression.
(§7) Using methods which are described in the above examples or well known in the art, purified, recombinant mutated HPPD enzymes are characterized with respect to their kinetic properties and sensitivity towards HPPD inhibiting herbicides. Apparent michaelis constants (Km) and maximal reaction velocities (Vmax) are calculated by non-linear regression with the software GraphPad Prism 5 (GraphPad Software, La Jolla, USA) using a substrate inhibition model. Apparent kcat values are calculated from Vmax assuming 100% purity of the enzyme preparation. Weighted means (by standard error) of Km and IC50 values are calculated from at least three independent experiments. The Cheng-Prusoff equation for competitive inhibition (Cheng, Y. C.; Prusoff, W. H. Biochem Pharmacol 1973, 22, 3099-3108) is used to calculate dissociation constants (Ki).
(§8) Field performance of the HPPD enzyme, which is used as a herbicide tolerance trait may depend not only on its lack of sensitivity towards HPPD inhibiting herbicides but also on its activity. To assess the potential performance of a herbicide tolerance trait a tolerance index (TI) is calculated using the following formula: […]
(§9) Easy comparison and ranking of each trait is enabled by normalizing tolerance indexes on Arabidopsis wild-type HPPD.

[2] = tested on: SoHPPD A318P, A319P (short); format: biochemical, Scenedesmus obliquus; conditions: normalized on Arabidopsis wild-type HPPD (SEQ ID NO:42)
Protocol: as §1, §2, §3, §4, §5, §6, §7, §8, §9

[3] = tested on: SoHPPD A318R, L350M (short); format: biochemical, Scenedesmus obliquus; conditions: normalized on Arabidopsis wild-type HPPD (SEQ ID NO:42)
Protocol: as §1, §2, §3, §4, §5, §6, §7, §8, §9

SoHPPD A318R, L350M = format: biochemical, Scenedesmus obliquus; conditions: normalized on Arabidopsis wild-type HPPD (SEQ ID NO:42)
Protocol: as §1, §2, §3, §4, §5, §6, §7, §8, §9

SoHPPD E345Q (short) = format: biochemical, Scenedesmus obliquus; conditions: normalized on Arabidopsis wild-type HPPD (SEQ ID NO:42)
Protocol: as §1, §2, §3, §4, §5, §6, §7, §8, §9

[4] = tested on: SoHPPD E345Q, K326D (short); format: biochemical, Scenedesmus obliquus; conditions: normalized on Arabidopsis wild-type HPPD (SEQ ID NO:42)
Protocol: as §1, §2, §3, §4, §5, §6, §7, §8, §9

[5] = tested on: SoHPPD E345Q, K326Q (short); format: biochemical, Scenedesmus obliquus; conditions: normalized on Arabidopsis wild-type HPPD (SEQ ID NO:42)
Protocol: as §1, §2, §3, §4, §5, §6, §7, §8, §9

SoHPPD E379Q (short) = format: biochemical, Scenedesmus obliquus; conditions: normalized on Arabidopsis wild-type HPPD (SEQ ID NO:42)
Protocol: as §1, §2, §3, §4, §5, §6, §7, §8, §9

SoHPPD F363I (short) = format: biochemical, Scenedesmus obliquus; conditions: normalized on Arabidopsis wild-type HPPD (SEQ ID NO:42)
Protocol: as §1, §2, §3, §4, §5, §6, §7, §8, §9

SoHPPD F363I = format: biochemical, Scenedesmus obliquus; conditions: normalized on Arabidopsis wild-type HPPD (SEQ ID NO:42)
Protocol: as §1, §2, §3, §4, §5, §6, §7, §8, §9

[6] = tested on: SoHPPD F39W, L367V, I375L (short); format: biochemical, Scenedesmus obliquus; conditions: normalized on Arabidopsis wild-type HPPD (SEQ ID NO:42)
Protocol: as §1, §2, §3, §4, §5, §6, §7, §8, §9

SoHPPD H306K (short) = format: biochemical, Scenedesmus obliquus; conditions: normalized on Arabidopsis wild-type HPPD (SEQ ID NO:42)
Protocol: as §1, §2, §3, §4, §5, §6, §7, §8, §9

SoHPPD I419V (short) = format: biochemical, Scenedesmus obliquus; conditions: normalized on Arabidopsis wild-type HPPD (SEQ ID NO:42)
Protocol: as §1, §2, §3, §4, §5, §6, §7, §8, §9

SoHPPD I455V = format: biochemical, Scenedesmus obliquus; conditions: normalized on Arabidopsis wild-type HPPD (SEQ ID NO:42)
Protocol: as §1, §2, §3, §4, §5, §6, §7, §8, §9

[7] = tested on: SoHPPD K326E, E345Q (short); format: biochemical, Scenedesmus obliquus; conditions: normalized on Arabidopsis wild-type HPPD (SEQ ID NO:42)
Protocol: as §1, §2, §3, §4, §5, §6, §7, §8, §9

[8] = tested on: SoHPPD L367V, I375L (short); format: biochemical, Scenedesmus obliquus; conditions: normalized on Arabidopsis wild-type HPPD (SEQ ID NO:42)
Protocol: as §1, §2, §3, §4, §5, §6, §7, §8, §9

SoHPPD L367V, I375L = format: biochemical, Scenedesmus obliquus; conditions: normalized on Arabidopsis wild-type HPPD (SEQ ID NO:42)
Protocol: as §1, §2, §3, §4, §5, §6, §7, §8, §9

SoHPPD Q317H (short) = format: biochemical, Scenedesmus obliquus; conditions: normalized on Arabidopsis wild-type HPPD (SEQ ID NO:42)
Protocol: as §1, §2, §3, §4, §5, §6, §7, §8, §9

[9] = tested on: SoHPPD Q317H, A318G, E345Q (short); format: biochemical, Scenedesmus obliquus; conditions: normalized on Arabidopsis wild-type HPPD (SEQ ID NO:42)
Protocol: as §1, §2, §3, §4, §5, §6, §7, §8, §9

[10] = tested on: SoHPPD Q317H, A318G, E345Q; format: biochemical, Scenedesmus obliquus; conditions: normalized on Arabidopsis wild-type HPPD (SEQ ID NO:42)
Protocol: as §1, §2, §3, §4, §5, §6, §7, §8, §9

SoHPPD Q317H = format: biochemical, Scenedesmus obliquus; conditions: normalized on Arabidopsis wild-type HPPD (SEQ ID NO:42)
Protocol: as §1, §2, §3, §4, §5, §6, §7, §8, §9

SoHPPD Q317M (short) = format: biochemical, Scenedesmus obliquus; conditions: normalized on Arabidopsis wild-type HPPD (SEQ ID NO:42)
Protocol: as §1, §2, §3, §4, §5, §6, §7, §8, §9

[11] = tested on: SoHPPD R327G, E421D (short); format: biochemical, Scenedesmus obliquus; conditions: normalized on Arabidopsis wild-type HPPD (SEQ ID NO:42)
Protocol: as §1, §2, §3, §4, §5, §6, §7, §8, §9

SoHPPD V251A (short) = format: biochemical, Scenedesmus obliquus; conditions: normalized on Arabidopsis wild-type HPPD (SEQ ID NO:42)
Protocol: as §1, §2, §3, §4, §5, §6, §7, §8, §9

[12] = tested on: SoHPPD V251A, H306R, Q317L, A318P, G321P, K331E, L350M (short); format: biochemical, Scenedesmus obliquus; conditions: normalized on Arabidopsis wild-type HPPD (SEQ ID NO:42)
Protocol: as §1, §2, §3, §4, §5, §6, §7, §8, §9

Row | SMILES | TI (normalized tolerance index) [1] | TI (normalized tolerance index) [2] | TI (normalized tolerance index) [3] | TI (normalized tolerance index) (SoHPPD A318R, L350M) | TI (normalized tolerance index) (SoHPPD E345Q (short)) | TI (normalized tolerance index) [4] | TI (normalized tolerance index) [5] | TI (normalized tolerance index) (SoHPPD E379Q (short)) | TI (normalized tolerance index) (SoHPPD F363I (short)) | TI (normalized tolerance index) (SoHPPD F363I) | TI (normalized tolerance index) [6] | TI (normalized tolerance index) (SoHPPD H306K (short)) | TI (normalized tolerance index) (SoHPPD I419V (short)) | TI (normalized tolerance index) (SoHPPD I455V) | TI (normalized tolerance index) [7] | TI (normalized tolerance index) [8] | TI (normalized tolerance index) (SoHPPD L367V, I375L) | TI (normalized tolerance index) (SoHPPD Q317H (short)) | TI (normalized tolerance index) [9] | TI (normalized tolerance index) [10] | further results
1 | CCSc1ccc(Cl)c(C(=O)Nc2nnnn2C)c1Cl [Inhibitor 8, 2,6-dichloro-3-ethylsulfanyl-N-(1-methyltetrazol-5-yl)benzamide] | 0.9 | 0.8 | 1.2 | 0.2 | 0.5 | 0.3 | 0.3 | 0.4 | not inhibited; also recorded: no inhi- | no inhibition; also recorded: no inhi- | 0.5 | 0.3 | 0.3 | 0.3 | 0.1 | 0.7 | 0.0 | 0.5 | 1.0 | 0.1 | TI (normalized tolerance index) (SoHPPD Q317H): 0.1; TI (normalized tolerance index) (SoHPPD Q317M (short)): 0.8; TI (normalized tolerance index) [11]: 0.5; TI (normalized tolerance index) (SoHPPD V251A (short)): 0.1; TI (normalized tolerance index) [12]: 0.2
2 | CCS(=O)(=O)c1cc(C(F)(F)F)ccc1C1=C(O)c2ncccc2C(C)(C)S1(=O)=O [Inhibitor 4, 7-[2-ethylsulfonyl-4-(trifluoromethyl)phenyl]-5,5-dimethyl-6,6-dioxo-thiopyrano[4,3-b]pyridin-8-ol] | 1.4 | 0.6 | 1.0 | 0.3 | 0.3 | 0.0 | 0.0 | 0.1 | 0.3 | 0.1 | 0.2 | 0.3 | 0.3 | 0.5 | 0.0 | 0.3 | 0.2 | 0.6 | 1.4 | 0.4 | TI (normalized tolerance index) (SoHPPD Q317H): 0.3; TI (normalized tolerance index) (SoHPPD Q317M (short)): 1.3; TI (normalized tolerance index) [11]: 0.0; TI (normalized tolerance index) (SoHPPD V251A (short)): 0.0; TI (normalized tolerance index) [12]: 0.0
3 | CS(=O)(=O)c1ccc(C(=O)C2C(=O)CCCC2=O)c([N+](=O)[O-])c1 [Inhibitor 2, 2-(4-methylsulfonyl-2-nitro-benzoyl)cyclohexane-1,3-dione] | 0.0 | 0.2 | 0.8 | 0.1 | 0.5 | 0.1 | 0.1 | 0.0 | 0.8 | 0.1 | 0.0 | 0.1 | 0.1 | 0.1 | 0.0 | 0.0 | 0.0 | 0.2 | 0.4 | 0.1 | TI (normalized tolerance index) (SoHPPD Q317H): 0.1; TI (normalized tolerance index) (SoHPPD Q317M (short)): 0.6; TI (normalized tolerance index) [11]: 0.2; TI (normalized tolerance index) (SoHPPD V251A (short)): 0.0; TI (normalized tolerance index) [12]: 0.7
4 | Cc1c(C(=O)c2cnn(C)c2O)ccc(S(C)(=O)=O)c1C1=NOCC1 [Inhibitor 1, [3-(4,5-dihydroisoxazol-3-yl)-2-methyl-4-methylsulfonyl-phenyl]-(5-hydroxy-1-methyl-pyrazol-4-yl)methanone] |  |  |  |  |  |  |  |  |  |  |  |  |  |  |  |  |  |  |  |  | pKi [1]: 7.34
